Measured values reported in PubChem BioAssay AID1919003 (Molecular Pharmacology Branch, DTP, NCI, 2023).
Where “and” joins values, the source holds several entries; their conditions need not be identical. Equal entries are not always repeated.

System: 786-0 complex spheroids with HUVEC/MSC, growth % test/control
Assay: Anticancer human tumor 786-0 cell line growth inhibition [AhR];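 further: compound exposure lasted seven days before the read-out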
Settings: for viability, T/C: stronger effect = lower value
Procedure, shortened: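 Spheroids combined tumor cells with HUVEC endothelial cells and human MSCs as stroma. AhR antagonists were paired with standard or investigational drugs, each dosed in half-log steps down from near clinical Cmax, or from 10 microM where Cmax was unknown.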

[1] = curve of first compound, second compound 0.1 µM
[2] = curve of first compound, second compound 0.316 µM
[3] = curve of first compound, second compound 1 µM
[4] = curve of first compound, second compound 3.16 µM
[5] = curve of first compound, second compound 10 µM
[6] = second compound 0.1 µM, first compound 0.0316 µM
[7] = second compound 0.1 µM, first compound 0.1 µM
[8] = second compound 0.1 µM, first compound 0.316 µM
[9] = second compound 0.1 µM, first compound 1 µM
[10] = second compound 0.1 µM, first compound 3.16 µM
[11] = second compound 0.1 µM, first compound 10 µM
[12] = second compound 0.316 µM, first compound 0.0316 µM
[13] = second compound 0.316 µM, first compound 0.1 µM
[14] = second compound 0.316 µM, first compound 0.316 µM
[15] = second compound 0.316 µM, first compound 1 µM
[16] = second compound 0.316 µM, first compound 3.16 µM
[17] = second compound 0.316 µM, first compound 10 µM
[18] = second compound 1 µM, first compound 0.0316 µM
[19] = second compound 1 µM, first compound 0.1 µM
[20] = second compound 1 µM, first compound 0.316 µM
[21] = second compound 1 µM, first compound 1 µM
[22] = second compound 1 µM, first compound 3.16 µM
[23] = second compound 1 µM, first compound 10 µM
[24] = second compound 3.16 µM, first compound 0.0316 µM
[25] = second compound 3.16 µM, first compound 0.1 µM
[26] = second compound 3.16 µM, first compound 0.316 µM
[27] = second compound 3.16 µM, first compound 1 µM
[28] = second compound 3.16 µM, first compound 3.16 µM
[29] = second compound 3.16 µM, first compound 10 µM
[30] = second compound 10 µM, first compound 0.0316 µM
[31] = second compound 10 µM, first compound 0.1 µM
[32] = second compound 10 µM, first compound 0.316 µM
[33] = second compound 10 µM, first compound 1 µM
[34] = second compound 10 µM, first compound 3.16 µM
[35] = second compound 10 µM, first compound 10 µM

CC(C)c1c(-c2ccccc2)nc2c(C#N)c[nH]n2c1=O + Cc1ccccc1N=Nc1ccc(NC(=O)c2ccnn2C)c(C)c1
IC50 [1]: > 10 µM | IC50 [2]: > 10 µM | IC50 [3]: > 10 µM | IC50 [4]: > 10 µM | IC50 [5]: > 10 µM | viability, T/C [6]: 93.9% | viability, T/C [7]: 99.9% | viability, T/C [8]: 99.5% | viability, T/C [9]: 101% | viability, T/C [10]: 92.1% | viability, T/C [11]: 99% | viability, T/C [12]: 90.1% | viability, T/C [13]: 93.4% | viability, T/C [14]: 97.1% | viability, T/C [15]: 95.5% | viability, T/C [16]: 92.6% | viability, T/C [17]: 95.2% | viability, T/C [18]: 94.6% | viability, T/C [19]: 92.8% | viability, T/C [20]: 114% | viability, T/C [21]: 98.6% | viability, T/C [22]: 96.3% | viability, T/C [23]: 88.9% | viability, T/C [24]: 86.8% | viability, T/C [25]: 85.3% | viability, T/C [26]: 89.6% | viability, T/C [27]: 82.8% | viability, T/C [28]: 85% | viability, T/C [29]: 84.2% | viability, T/C [30]: 86.6% | viability, T/C [31]: 83.9% | viability, T/C [32]: 84.5% | viability, T/C [33]: 82.4% | viability, T/C [34]: 83.1% | viability, T/C [35]: 79.5%

COc1cc(C2c3cc4c(cc3C(OC3OC5COC(C)OC5C(O)C3O)C3COC(=O)C23)OCO4)cc(OC)c1O (configuration not stated)
viability, T/C (compound 0.0316 µM): 101% and 104% and 103% | viability, T/C (compound 0.1 µM): 100% and 95.1% and 109% | viability, T/C (compound 0.316 µM): 75% and 74.2% and 81.8% | viability, T/C (compound 1 µM): 46.5% and 25.8% and 49% | viability, T/C (compound 3.16 µM): 26.6% and 22.7% and 27% | viability, T/C (compound 10 µM): 5.89% and 5.81% and 13.3% | IC50 (curve of compound): 0.951 µM and 0.572 µM and 0.989 µM

CC1(C)CCC(CN2CCN(c3ccc(C(=O)NS(=O)(=O)c4ccc(NCC5CCOCC5)c([N+](=O)[O-])c4)c(Oc4cnc5[nH]ccc5c4)c3)CC2)=C(c2ccc(Cl)cc2)C1 + Cc1ccccc1N=Nc1ccc(NC(=O)c2ccnn2C)c(C)c1
IC50 [1]: > 10 µM | IC50 [2]: > 10 µM | IC50 [3]: > 10 µM | IC50 [4]: > 10 µM | IC50 [5]: > 10 µM | viability, T/C [6]: 97.2% | viability, T/C [7]: 103% | viability, T/C [8]: 95.2% | viability, T/C [9]: 109% | viability, T/C [10]: 89.5% | viability, T/C [11]: 83.8% | viability, T/C [12]: 109% | viability, T/C [13]: 99% | viability, T/C [14]: 102% | viability, T/C [15]: 106% | viability, T/C [16]: 97.8% | viability, T/C [17]: 77.9% | viability, T/C [18]: 97.5% | viability, T/C [19]: 95.1% | viability, T/C [20]: 96.7% | viability, T/C [21]: 99.4% | viability, T/C [22]: 91.8% | viability, T/C [23]: 80% | viability, T/C [24]: 95.6% | viability, T/C [25]: 96.9% | viability, T/C [26]: 99.2% | viability, T/C [27]: 90.4% | viability, T/C [28]: 77.1% | viability, T/C [29]: 82.9% | viability, T/C [30]: 94.6% | viability, T/C [31]: 96.3% | viability, T/C [32]: 88.3% | viability, T/C [33]: 87.8% | viability, T/C [34]: 75.7% | viability, T/C [35]: 65.5%
